The text below walks through data of patent US9181172B2, “Rhein conjugates, preparation method thereof and their uses in producing medicines for treating diabetic nephrosis, intestinal adhesion and osteoarthritis” (priority 2005, dated 2015).

One series concerns obese hyperglycemia mice. Description: Body weight and blood glucose of obese hyperglycemia mice. It counts as in vivo. On the procedure:
9-week-old obese mice of hyperglycemia were randomly divided into: rhein sodium group, non-treatment group, rosiglitazone group, rhein lysine high-dose group and low-dose group, each group has 6 mice. Kunming mice of the same age were used as the control group, which were fed by conventional feedstuff with free food and water feeding. Rhein lysine conjugates [the dose is 180 mg/kg (0.418 mmol/kg) and 90 mg/kg (0.209 mmol/kg) for intragastric infusion, prepared with distilled water], dose of the rhein sodium group is 130 mg/kg (0.424 mmol/kg), the mixture was dissolved with distilled water, intragastric administration; rosiglitazone group (the dose is 4 mg/kg), the mixture was dissolved with distilled water, intragastric administration, and the rats of the other two groups were administered with the same volume of distilled water, once a day, 12 weeks of administration in succession. The animals' body weight and blood sugar were measured regularly, and statistical analysis was conducted.

The next series concerns diabetic rats. The series can be described thus: Diabetic nephrosis of obese diabetic rats (high-fat high-sugar diet plus STZ). The class given is in vivo. To be noted: for Urine protein / Kidney weight index (double kidney weight/body weight × 10^4) / Serum total cholesterol / Serum triacylglycerol / Steady blood sugar level / Steady insulin level / Weight / blood sugar: six months, ig 90 mg/kg. On the procedure: Animal model of diabetic rats: after one month of high-fat high-sugar diet, the rats (about 180 g) were injected by sub-pathogenic dose (25 mg/kg) of streptozotocin (STZ) to induce the occurrence of diabetes. The model has the characteristics of moderate hyperglycemia, hyperlipidemia and insulin resistance as well as pathological changes of typical diabetic nephrosis.
• 1. Conventional feedstuff control group: distilled water. • 2. Diabetes model group: distilled water. • 3. Rhein lysine diabetes treatment group: a month after STZ injection, rhein lysine complex [prepared with distilled water, intragastric infusion for rats according to 90 mg/kg (0.209 mmol/kg) dose] was administered referred to treatment group 1. • 4. Rhein sodium diabetes treatment group: a month after STZ injection, rhein sodium [prepared with distilled water, intragastric infusion for rats, according to 65 mg/kg (0.212 mmol/kg) dose] was administered, referred to treatment group 2. • 5. Rhein lysine diabetes prevention group: one week after STZ injection, rhein lysine conjugates were administered [prepared with distilled water and intragastric infusion for rats, according to 90 mg/kg (0.209 mmol/kg) dose], referred to prevention group 1. • 6. Rhein sodium diabetes prevention group: one week after STZ injection, rhein sodium were administered [prepared with distilled water and intragastric infusion for rats, according to 65 mg/kg (0.212 mmol/kg ) dose], referred to prevention group 2.

The subject of series [1] is obese rats of high-fat and high-sugar diet. The series can be described thus: Body weight of obese rats of high-fat and high-sugar diet. The class given is in vivo. From the text: Group A: conventional diet, 4 weeks later, started to carry on intragastric administration, and the same volume of distilled water as the control, once daily, three weeks in succession.
Group B: high-fat high-sugar diet, 4 weeks later, started to carry on intragastric administration, and the same volume of distilled water as the model control, once daily, three weeks in succession.
Group C: high-fat high-sugar diet, 4 weeks later, started to carry on intragastric administration of rhein lysine conjugates [dose: 90 mg/kg (0.209 mmol/kg), prepared by distilled water], once daily, three weeks in succession.
Group D: high-fat high-sugar diet, 4 weeks later, started to carry on intragastric administration of rhein lysine conjugates [dose: 45 mg/kg (0.105 mmol/kg), prepared by distilled water], once daily, three weeks in succession.
Group E: high-fat high-sugar diet, 4 weeks later, started to carry on intragastric administration of rhein sodium [dose: 65 mg/kg (0.212 mmol/kg), prepared by distilled water], once daily, three weeks in succession.

Series [2] is described as follows: Comparison of metal salts or conjugates hydro-acupuncture (water-carrier) preparation: pH value and clarity. It counts as physicochemical. The following applies: 2.0 mg/ml in water, as dissolved. On the procedure:
Proper amount of different rhein or rhein-containing effective part metal salts or conjugates were put into a 10 ml volumetric flask, added with water, shaken and dissolved for constant volume, and then a water-carrier preparation was obtained. Rhein or rhein-containing effective part sodium salts or sylvan preparation are adjusted to the original pH with diluted hydrochloric acid and the results were shown in Table 4.

Series [3] has as its system mice. Description: Immune function in mice (clearance index, phagocytic index). It counts as in vivo. To be noted: ig 20 mg/kg, 3 days. The procedure: Fifty Kunming mice, half male and half female, weighing 18-22 g each were selected and randomly divided into five groups, namely, model control group, cyclophosphamide group, rhein sodium group, rhein glucosamine large dose group and small dose group, 10 mice for each group. The mice were administered with medicines by intragastric administration, 0.2 ml/10 g body weight, once every day and administered for 3 days in succession. After the mice were administered with medicines, 30 minutes later, test was carried on according to the method in the literature [Xu Shuyun, Methodology in Pharmacological Experiment (the 3rd version): 934]. The […] and corrected phagocytic index α were calculated, and t-test was conducted for statistical analysis.

In a further series the test system is rats. The series can be described thus: Intestinal adhesion in rats. The following applies: 10 mg/kg once every two days, 7th day. It counts as in vivo. The procedure:
Rats were fasted for 12 h and models were built according to the methods in the literature [Xu Shuyun, Methodology in Pharmacological Experiment (the 3rd version): 1335]. The rats were randomly divided into five groups, namely, model control group, dexamethasone group, rhein sodium group, rhein glucosamine large dose group and low dose group. Each group included 12 rats. […] The rats of the model group were administered with the same volume of NS, while the rats of the positive control group were administered with dexamethasone, administered once every two days, dose: 10 mg/kg. The administration volume was the same as the treatment group. The rats were killed on the 7th day and carried on laparotomy. Adhesion degree was classified and scored respectively. The classification and score of the observed index-adhesion degree can refer to the five-grade classification method prepared by Nair, and determine the classification standard, see Schedule 13. Intestinal adhesion classification adopts Ridit analysis. The test results are as follows (Table 14): […]

Series [4] relates to mice. The series can be described thus: Intestinal propulsion in mice. The class given is in vivo. The following applies: dosage 9 mg/kg, intravenous injection. On the procedure:
Fifty mice, male, weighting from 18 to 22 g, were randomly divided into five groups, namely, model control group, domperidone group, rhein sodium group, rhein glucosamine large dose group and low dose group.
Each group has 10 mice respectively. The mice were fasted, but water was not prohibited, and then administered with medicines by intravenous injection. After that, tests were carried on immediately according to the methods in the literature[Xu Shuyun, Methodology in Pharmacological Experiment (the 3rd version): 1313]. The intestinal propulsive rates were calculated, and t test was used for the intergroup comparison.

Where [5] appears, read: baseline of high-dose group, ig 180 mg/kg once a day.
Where [6] appears, read: baseline of low-dose group, ig 90 mg/kg once a day.
The mark [7] stands for this setting: prevention group and treatment group, six months after administration.
Where [8] appears, read: baseline of group given ig 4 mg/kg once a day.

For `NCCCCC(N)C(=O)O.O=C(O)c1cc(O)c2c(c1)C(=O)c1cccc(O)c1C2=O` [Rhein lysine conjugate, Rhein Lysine Conjugate], the “weight and blood sugar compared with the non-treatment group” value with obese hyperglycemia mice (9 weeks after administration) was “extremely significant difference”. In the series on obese hyperglycemia mice (setting [5]), the “Blood glucose prior to administration” value was 29.2 ± 3.6 mmol/L and the “Body weight prior to administration” value is 29.2 ± 1.6 g. Besides, in the series with obese hyperglycemia mice (setting [6]), the “Blood glucose prior to administration” value was found to be 28.7 ± 5.3 mmol/L and the “Body weight prior to administration” value is reported as 28.8 ± 1.6 g. In addition, in the series on obese hyperglycemia mice (ig 90 mg/kg once a day), the “Blood glucose 6 w after administration” value came to 31.4 ± 4.9 mmol/L, the “Blood glucose 9 w after administration” value amounted to 33.7 ± 5.6 mmol/L, the “Blood glucose 12 w after administration” value turned out to be 30.4 ± 4.2 mmol/L and the “Body weight 6 w after administration” value was 35.7 ± 1.7 g. For the same molecule, in the series on obese hyperglycemia mice (ig 90 mg/kg once a day), the “Body weight 9 w after administration” value is reported as 39.3 ± 1.2 g and the “Body weight 12 w after administration” value is reported as 41.3 ± 1.6 g. For the same molecule, in the series with obese hyperglycemia mice (ig 180 mg/kg once a day), the “Blood glucose 6 w after administration” value was 30.9 ± 4.2 mmol/L, the “Blood glucose 9 w after administration” value worked out at 30.2 ± 5.3 mmol/L, the “Blood glucose 12 w after administration” value came out at 28.1 ± 5.4 mmol/L and the “Body weight 6 w after administration” value is reported as 34.9 ± 1.6 g. Moreover, in the series on obese hyperglycemia mice (ig 180 mg/kg once a day), the “Body weight 9 w after administration” value is 38.2 ± 1.3 g and the “Body weight 12 w after administration” value turned out to be 40.1 ± 1.4 g. For the same molecule, in the series with diabetic rats (setting [7]), the “kidney weight and kidney weight index compared with the model group” value is “significantly lower”; the “serum cholesterol and triglyceride compared with the model group” value is listed as “significantly lower”; the “urine protein content compared with the model group” value is recorded as “significantly lower”. The “blood sugar level compared with the model group” value in the series on diabetic rats (prevention group, six months after administration) is listed as “significantly lower”. Further, the Urine protein in the series with diabetic rats (preventive administration from one week after STZ) came to 10.23 ± 3.34 mg/24 h. In the series on diabetic rats (preventive administration), the “Kidney weight index (double kidney weight/body weight × 10^4)” value is 5.26 ± 0.74, the Serum total cholesterol was 2.78 ± 0.21 mM, the Serum triacylglycerol was 1.56 ± 0.32 and the “Steady blood sugar level” value is 6.2 ± 0.4 mmol/L. Besides, in the series on diabetic rats (preventive administration), the Steady insulin level is on record as 71.6 ± 3.5 uU/ml, the Weight stood at 248 ± 13 g and the blood sugar is given as 14.98 ± 5.9 mmol/L. Also, the Urine protein with diabetic rats (treatment from a month after STZ) is 15.12 ± 5.68 mg/24 h. Further, the “blood sugar level compared with the model group” value in the series on diabetic rats (treatment group, six months after administration) is “no significant difference”. For the same molecule, in the series with diabetic rats (treatment), the “Kidney weight index (double kidney weight/body weight × 10^4)” value came to 6.7 ± 0.78, the Serum total cholesterol came out at 3.56 ± 0.71 mM, the Serum triacylglycerol was determined as 1.63 ± 0.39 and the “Steady blood sugar level” value was 5.6 ± 0.9 mmol/L. Besides, in the series on diabetic rats (treatment), the Steady insulin level worked out at 80 ± 3.5 uU/ml, the Weight turned out to be 228 ± 15 g and the blood sugar came to 17.4 ± 5.6 mmol/L. For the same molecule, the “The body weight increased 7 weeks after high-sugar high-fat diet” value in series [1] (Group C, after three weeks ig 90 mg/kg once daily) is reported as 16.8 ± 4.8 g. In addition, the “The body weight increased 4 weeks after high-sugar high-fat diet” value in series [1] (Group C, before start of ig 90 mg/kg) is given as 15.3 ± 3.8 g. Further, the “The body weight increased 7 weeks after high-sugar high-fat diet” value in series [1] (Group D, after three weeks ig 45 mg/kg once daily) was determined as 17.7 ± 4.6 g. In addition, in series [1] (Group D, before start of ig 45 mg/kg), the “The body weight increased 4 weeks after high-sugar high-fat diet” value turned out to be 16.1 ± 4.2 g.

Turning to `O=C([O-])c1cc(O)c2c(c1)C(=O)c1cccc(O)c1C2=O.[K+]` [Rhein sylvin], in series [2], the PH value is on record as 9-10 and the clarity result is recorded as “clear”.

As for `CN(CCOc1ccc(CC2SC(=O)NC2=O)cc1)c1ccccn1` (stereo not shown) [Rosiglitazone], in the series on obese hyperglycemia mice (setting [8]), the “Blood glucose prior to administration” value turned out to be 29.3 ± 4.7 mmol/L and the “Body weight prior to administration” value was 29.3 ± 1.7 g. For the same molecule, in the series on obese hyperglycemia mice (ig 4 mg/kg once a day), the “Blood glucose 6 w after administration” value came out at 31.1 ± 4.9 mmol/L, the “Blood glucose 9 w after administration” value amounted to 30.5 ± 4.5 mmol/L, the “Blood glucose 12 w after administration” value was determined as 27.9 ± 3.8 mmol/L and the “Body weight 6 w after administration” value was found to be 42.1 ± 1.9 g. In addition, in the series with obese hyperglycemia mice (ig 4 mg/kg once a day), the “Body weight 9 w after administration” value amounted to 48.2 ± 1.5 g and the “Body weight 12 w after administration” value was found to be 50.1 ± 1.8 g.

For the molecule `O=P1(N(CCCl)CCCl)NCCCO1` (stereo not shown) [cyclophosphamide], in the series on mice [3], the “Clearance index (k)” value turned out to be 0.0192 ± 0.0102 and the “Phagocytic index (α)” value is reported as 4.0208 ± 0.6698.

Regarding `C[C@@H]1C[C@H]2[C@@H]3CCC4=CC(=O)C=C[C@]4(C)[C@@]3(F)[C@@H](O)C[C@]2(C)[C@@]1(O)C(=O)CO` [dexamethasone], the “Rating of adhesion degree 0” value with rats (number of 12 rats with completely no adhesion) was determined as 1. For the same molecule, the “Rating of adhesion degree III” value in the series with rats (number of 12 rats with more than two adhering zones) was 1. For the same molecule, in the series on rats (number of 12 rats with one adhering zone), the “Rating of adhesion degree I” value amounted to 2. Further, the “Rating of adhesion degree IV” value in the series with rats (number of 12 rats with organs adhering to abdominal wall directly) worked out at 0. Also, the “Rating of adhesion degree II” value with rats (number of 12 rats with two adhering zones) is listed as 8.

For the molecule `O=c1[nH]c2ccccc2n1CCCN1CCC(n2c(=O)[nH]c3cc(Cl)ccc32)CC1` [domperidone], in the series on mice [4], the Propulsive rate turned out to be 55.42 ± 9.6 %.

As to `C[N+](C)(C)CC(O)CC(=O)[O-].O=C(O)c1cc(O)c2c(c1)C(=O)c1cccc(O)c1C2=O` [rhein carnitine conjugate, Rhein Carnitine Conjugate], in series [2], the PH value was 6-7 and the clarity result is “clear”.

For `CNC[C@H](O)[C@@H](O)[C@H](O)[C@H](O)CO.O=C(O)c1cc(O)c2c(c1)C(=O)c1cccc(O)c1C2=O` [rhein meglumine conjugate, Rhein Meglumine Conjugate], in series [2], the PH value is 6-7 and the clarity entry is “clear”.
